Experimental data published in PMC10761937, “Functional engineering of human iPSC‐derived parasympathetic neurons enhances responsiveness to gastrointestinal hormones” (FEBS Open Bio, 2023).

Legend:
[1] = test system: rat nodal ganglion cells; details: various concentrations; ref [31], [32], [33], [34]; cited from earlier work
Source text: Previous reports indicate that rat nodal ganglion cells respond to various concentrations of hormones, including CCK, GLP1, PYY, and 5‐HT [31, 32, 33, 34]. […] However, it is noteworthy that the overexpression of these receptors in our model may not reconstruct natural expres ...

[2] = test system: GLP1R‐neurons; experiment: MEA recording of neuronal firing, GLP1R‐neurons; format: cell-based, human; details: 10 nM GLP1; day 27; 0 nM n = 31 electrodes, 10 nM n = 34 electrodes; 5 min before and after ligand addition
Method: Before initiating differentiation, the iPSCs (1–2 × 10^5 cells·cm^−2; Cell lines and cell culture section) were transferred to 6‐well plates (Corning, Inc., Corning, NY, USA) coated with 2‐methacryloyloxyethyl phosphorylcholine (MPC) polymer (Lipidure CM5206E; NOF, Tokyo, Japan). The cells were maintained in mTeSR1 cGMP medium containing 10 μM Y‐27632 (Fujifilm Wako Pure Chemical Industries) for 2 or 3 days to form embryoid body (EBs) in a rotary shaker at 95 r.p.m. (OS‐762RC; Optime, Tokyo, Japan). Subsequently, iPSCs were differentiated into neural crest cells (NCCs), as previously reported. Briefly, NCCs were induced from Ebs using knockout serum replacement (KSR) medium and N2 medium with graded addition of nerve growth factors and signaling factors. KSR medium was composed of DMEM‐F12 (Fujifilm Wako Pure Chemical Industries), 20% KSR (Thermo Fisher Scientific), 1% NEAA, 1% monothioglycerol (Fujifilm Wako Pure Chemical Industries), and 1% P/S. N2 medium consisted of DMEM‐F12, 1% N2 supplement (Fujifilm Wako Pure Chemical Industries), 1% NEAA, and 1% P/S. When EB formation was considered day 0 of induction, the medium was changed at days 2, 5, 7, 9, and 12. […]

In the case of “GLP1: GLP1 (4280‐v; Peptide Institute, Inc.); GLP1 (7–37) in Ca2+ imaging (HAEGTFTSDVSSYLEGQAAKEFIAWLVKGRG; Glucagon-like peptide 1(7-37); UniProt P01275 98-128, looked up)”, the “Response of rat nodal ganglion cells” value [1] is listed as “respond” and the “Change rate of firing frequency” value [2] is listed as “increased the change rate of firing frequency”.

In the case of “PYY: PYY (4400‐v; Peptide Institute, Inc.); PYY (3–36) in Ca2+ imaging”, the “Response of rat nodal ganglion cells” value [1] is given as “respond”.
